Experimental data taken from article PMC11003488 (Journal of Enzyme Inhibition and Medicinal Chemistry, 2023).
Where “and” joins values, the source holds several entries; their conditions need not be identical. Equal entries are not always repeated. Where two headings read alike, the source gives them in different places.

How the values were obtained:
IGROV1 = test: NCI-60 SRB growth inhibition, one-dose and five-dose; format: cell-based; settings: Homo sapiens
Leukaemia cell lines = test: NCI-60 SRB growth inhibition, subpanel; format: cell-based, human; settings: for GI50: Homo sapiens
Bax [1] = test: Gene expression by RT-qPCR in HCT-116; settings: HCT-116, 24 h
[2] = system: Prostate cancer cell lines; test: NCI-60 SRB growth inhibition, subpanel; format: cell-based, human; settings: for GI50: Homo sapiens
COLO 205 = test: NCI-60 SRB growth inhibition, one-dose and five-dose; format: cell-based; settings: Homo sapiens
HL-60(TB) = test: cells; format: cell-based; settings: Homo sapiens
MOLT-4 = test: NCI-60 SRB growth inhibition, one-dose and five-dose; format: cell-based; settings: Homo sapiens
Human VEGFR-2 = Human VEGFR-2 (Homo sapiens, UniProt P35968); test: VEGFR-2 inhibition assay; format: biochemical
HCT-15 = test: NCI-60 SRB growth inhibition, one-dose and five-dose; format: cell-based; settings: Homo sapiens
OVCAR-3 = test: as above; format: cell-based; settings: Homo sapiens
OVCAR-5 = test: as above; format: cell-based; settings: Homo sapiens
OVCAR-4 = test: as above; format: cell-based; settings: Homo sapiens
RXF 393 = test: as above; format: cell-based; settings: Homo sapiens
HCT-116 (colon cancer) [3] = test: Cell cycle analysis by PI flow cytometry; format: cell-based, human; settings: HCT-116, 24 h, IC50 of compound
MDA-MB-231/ATCC = test: NCI-60 SRB growth inhibition, one-dose and five-dose; format: cell-based; settings: Homo sapiens
TNF-α = test: Gene expression by RT-qPCR in HCT-116; settings: HCT-116, 24 h, IC50 of compound; vs 0.1% DMSO; 2^-ΔΔct
Breast cancer cell lines = test: NCI-60 SRB growth inhibition, subpanel; format: cell-based, human; settings: for GI50: Homo sapiens
HS 578 T = test: NCI-60 SRB growth inhibition, one-dose and five-dose; format: cell-based; settings: Homo sapiens
HCT-116 (colon cancer) [4] = test: Apoptosis AV/PI assay by flow cytometry; format: cell-based, human; settings: HCT-116, 24 h, IC50 of compound
HCT-116 = test: NCI-60 SRB growth inhibition, one-dose and five-dose; format: cell-based; settings: Homo sapiens
[5] = system: NCI 60-cell line panel (full panel); test: NCI-60 SRB growth inhibition, full panel mean / MG-MID; format: cell-based, human; settings: for GI50: Homo sapiens, 60 cell
Melanoma cell lines = test: NCI-60 SRB growth inhibition, subpanel; format: cell-based, human; settings: for GI50: Homo sapiens
[6] = system: Ovarian cancer cell lines; test: NCI-60 SRB growth inhibition, subpanel; format: cell-based, human; settings: for GI50: Homo sapiens
UO-31 = test: NCI-60 SRB growth inhibition, one-dose and five-dose; format: cell-based; settings: Homo sapiens
Bax [7] = test: Protein level by ELISA assay in HCT-116; format: cell-based, human; settings: HCT-116, IC50 of compound, 24 h, vs 0.1% DMSO
[8] = system: WI-38 normal human fibroblast cells; test: Cytotoxicity towards normal fibroblasts, safety index; format: cell-based; settings: WI-38 versus cancer cell lines
[9] = as above; format: cell-based, human; settings: human, WI-38 normal fibroblast cells
Caspase-3 [10] = test: Gene expression by RT-qPCR in HCT-116; settings: HCT-116, 24 h, IC50 of compound; vs 0.1% DMSO; 2^-ΔΔct
Caspase-3 [11] = test: Protein level by ELISA assay in HCT-116; format: cell-based, human; settings: HCT-116, IC50 of compound, 24 h, vs 0.1% DMSO
Colon cancer cell lines = test: NCI-60 SRB growth inhibition, subpanel; format: cell-based, human; settings: for GI50: Homo sapiens
NSCLC cell lines = test: NCI-60 SRB growth inhibition, subpanel; format: cell-based, human; settings: for GI50: Homo sapiens
SF-295 = test: NCI-60 SRB growth inhibition, one-dose and five-dose; format: cell-based; settings: Homo sapiens
SF-539 = test: as above; format: cell-based; settings: Homo sapiens
CNS cancer cell lines = test: NCI-60 SRB growth inhibition, subpanel; format: cell-based, human; settings: for GI50: Homo sapiens
UACC-257 = test: NCI-60 SRB growth inhibition, one-dose and five-dose; format: cell-based; settings: Homo sapiens
SNB-19 = test: as above; format: cell-based; settings: Homo sapiens
Renal cancer cell lines = test: NCI-60 SRB growth inhibition, subpanel; format: cell-based, human; settings: for GI50: Homo sapiens

Sequence of Human VEGFR-2 (P35968 20-1356): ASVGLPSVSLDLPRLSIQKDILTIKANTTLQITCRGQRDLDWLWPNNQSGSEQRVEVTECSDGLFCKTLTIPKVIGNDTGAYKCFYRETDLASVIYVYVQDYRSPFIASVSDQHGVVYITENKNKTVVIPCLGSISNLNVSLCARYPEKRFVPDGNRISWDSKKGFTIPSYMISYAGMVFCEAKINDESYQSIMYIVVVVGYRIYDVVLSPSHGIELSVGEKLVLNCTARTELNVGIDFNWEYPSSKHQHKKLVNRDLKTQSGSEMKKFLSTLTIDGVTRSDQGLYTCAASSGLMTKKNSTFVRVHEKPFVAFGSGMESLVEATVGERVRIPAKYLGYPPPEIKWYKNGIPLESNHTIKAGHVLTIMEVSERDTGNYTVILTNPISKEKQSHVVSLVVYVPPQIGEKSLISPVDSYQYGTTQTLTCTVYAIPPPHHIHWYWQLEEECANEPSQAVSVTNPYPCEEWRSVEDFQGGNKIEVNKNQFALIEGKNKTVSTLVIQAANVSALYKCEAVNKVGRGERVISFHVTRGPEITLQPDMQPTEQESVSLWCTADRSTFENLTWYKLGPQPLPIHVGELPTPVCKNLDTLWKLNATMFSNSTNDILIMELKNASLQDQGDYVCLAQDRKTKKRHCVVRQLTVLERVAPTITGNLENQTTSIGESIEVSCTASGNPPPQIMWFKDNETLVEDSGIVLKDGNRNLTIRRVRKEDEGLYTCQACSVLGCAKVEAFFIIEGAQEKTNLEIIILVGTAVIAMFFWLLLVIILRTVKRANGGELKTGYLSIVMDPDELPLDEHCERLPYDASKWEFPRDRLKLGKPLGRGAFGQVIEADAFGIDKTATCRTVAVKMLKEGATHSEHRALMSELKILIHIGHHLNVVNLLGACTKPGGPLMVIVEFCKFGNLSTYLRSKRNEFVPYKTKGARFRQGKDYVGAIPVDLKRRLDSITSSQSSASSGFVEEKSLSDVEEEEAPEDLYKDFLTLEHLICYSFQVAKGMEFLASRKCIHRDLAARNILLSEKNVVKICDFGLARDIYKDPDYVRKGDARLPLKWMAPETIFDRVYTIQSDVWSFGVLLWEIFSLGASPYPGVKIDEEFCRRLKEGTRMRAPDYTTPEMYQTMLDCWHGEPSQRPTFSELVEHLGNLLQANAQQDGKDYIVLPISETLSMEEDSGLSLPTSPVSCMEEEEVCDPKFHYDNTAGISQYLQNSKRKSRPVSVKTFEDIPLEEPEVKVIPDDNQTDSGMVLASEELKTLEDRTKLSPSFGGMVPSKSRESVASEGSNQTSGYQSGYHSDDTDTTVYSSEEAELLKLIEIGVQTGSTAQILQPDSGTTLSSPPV

`COc1ccc(CNc2cccc(C(=O)/C=C/c3ccc(NC(C)=O)cc3)c2)cc1OC` [Compound 5h, (E)-N-(4–(3-(3-((3,4-dimethoxybenzyl)amino)phenyl)-3-oxoprop-1-en-1-yl)phenyl) acetamide] showed a GI50 (IGROV1; IGROV-1) of 4.54 µM, an inhibition at 10 µM (IGROV1; IGROV-1, read-out: percent growth inhibition) of 96.8% and a GI50 (Leukaemia cell lines; read-out: GI50 MG-MID) of 2.36 µM. For the same compound, the GI50 (Leukaemia cell lines; read-out: MG-MID GI50) was 2.36 µM, the “SI (Selectivity Index)” value (Leukaemia cell lines; full panel MG-MID / leukaemia subpanel MG-MID) was 1.90 and the “Bax gene expression fold change” value (Bax [1]; IC50 of compound, vs 0.1% DMSO, 2^-ΔΔct) was 30.06 ± 3.4 fold. For the same compound, the Bax/Bcl-2 ratio (Bax [1]; ratio of gene expression fold changes) was 31.6, the GI50 ([2]; read-out: GI50 MG-MID) was 3.53 µM and the GI50 ([2]; read-out: MG-MID GI50) was 3.53 µM. For the same compound, the “SI (Selectivity Index)” value ([2]; full panel MG-MID / Prostatic Cancer subpanel MG-MID) was 1.27, the GI50 (COLO 205; COLO 205) was 9.39 µM and the inhibition at 10 µM (COLO 205; COLO 205, read-out: percent growth inhibition) was 145%. It also gave a GI50 (HL-60(TB); HL-60) of 2.54 µM, an inhibition at 10 µM (HL-60(TB); HL-60, read-out: percent growth inhibition) of 78.8% and a GI50 (MOLT-4; MOLT-4) of 2.68 µM. The inhibition at 10 µM (MOLT-4; MOLT-4, read-out: percent growth inhibition) was 78.3%, the IC50 (Human VEGFR-2) was 0.31 ± 0.015 µM and the GI50 (HCT-15; HCT-15) was 1.8 µM. The inhibition at 10 µM (HCT-15; HCT-15, read-out: percent growth inhibition) was 125%, the GI50 (OVCAR-3; OVCAR-3) was 2.28 µM and the inhibition at 10 µM (OVCAR-3; OVCAR-3, read-out: percent growth inhibition) was 114%. It also gave a GI50 (OVCAR-5; OVCAR-5) of 4.53 µM, an inhibition at 10 µM (OVCAR-5; OVCAR-5, read-out: percent growth inhibition) of 84.1% and a GI50 (OVCAR-4; OVCAR-4) of 3.09 µM. The inhibition at 10 µM (OVCAR-4; OVCAR-4, read-out: percent growth inhibition) was 89.4%, the GI50 (RXF 393; RXF 393) was 1.87 µM and the inhibition at 10 µM (RXF 393; RXF 393, read-out: percent growth inhibition) was 132%. For the same compound, the “% G0-G1” value (HCT-116 (colon cancer) [3]) was 35.12 ± 3.5%, the “% G2M” value (HCT-116 (colon cancer) [3]) was 3.21 ± 1.1% and the “% S” value (HCT-116 (colon cancer) [3]) was 4.91 ± 1.1%. For the same compound, the “% SubG0-G1” value (HCT-116 (colon cancer) [3]) was 56.87 ± 7.7%, the GI50 (MDA-MB-231/ATCC; MDA-MB-231) was 2.84 µM and the inhibition at 10 µM (MDA-MB-231/ATCC; MDA-MB-231, read-out: percent growth inhibition) was 89.4%. The “TNF-α gene expression fold change” value (TNF-α) was 2.2 fold and 2.20 ± 0.17 fold, the GI50 (Breast cancer cell lines; read-out: GI50 MG-MID) was 2.91 µM and the GI50 (Breast cancer cell lines; read-out: MG-MID GI50) was 2.91 µM. For the same compound, the “SI (Selectivity Index)” value (Breast cancer cell lines; full panel MG-MID / Breast Cancer subpanel MG-MID) was 1.54, the GI50 (HS 578 T) was 3.07 µM and the inhibition at 10 µM (HS 578 T; read-out: percent growth inhibition) was 99.1%. The “% Early apoptotic cells (LR)” value (HCT-116 (colon cancer) [4]) was 0.24 ± 0.01%, the “% Late apoptotic cells (UL)” value (HCT-116 (colon cancer) [4]) was 64.62 ± 10.1% and the “% Necrotic cells (UR)” value (HCT-116 (colon cancer) [4]) was 2.25 ± 0.71%. For the same compound, the “% Viable cells (LL)” value (HCT-116 (colon cancer) [4]) was 32.89 ± 3.8%, the GI50 (HCT-116; HCT-116, HCT-116 (colon cancer), five-dose assay) was 1.95 µM and the GI50 (HCT-116; HCT-116, HCT-116, five-dose screening) was 0.78 µM. The inhibition at 10 µM (HCT-116; HCT-116, read-out: percent growth inhibition) was 174%, the GI50 ([5]; read-out: Full panel GI50 mean) was 4.48 µM and the GI50 ([5]; read-out: Full panel MG-MID GI50) was 4.48 µM. For the same compound, the “Full panel Mean GI %” value ([5]; mean over NCI-60 panel, single dose 10 µM) was 108.5%, the GI50 (Melanoma cell lines; read-out: GI50 MG-MID) was 4.44 µM and the GI50 (Melanoma cell lines; read-out: MG-MID GI50) was 4.44 µM. For the same compound, the “SI (Selectivity Index)” value (Melanoma cell lines; full panel MG-MID / Melanoma subpanel MG-MID) was 1.01, the GI50 ([6]; read-out: GI50 MG-MID) was 5.75 µM and the GI50 ([6]; read-out: MG-MID GI50) was 5.75 µM. The “SI (Selectivity Index)” value ([6]; full panel MG-MID / Ovarian Cancer subpanel MG-MID) was 0.78, the GI50 (UO-31; UO-31) was 3 µM and the inhibition at 10 µM (UO-31; UO-31, read-out: percent growth inhibition) was 160%. For the same compound, the Bax protein level (Bax [7]) was 2.96 fold, the Safety index [8] was >1 and the GI50 at 48 h [9] was > 100 µM. The “Caspase-3 gene expression fold change” value (Caspase-3 [10]) was 0.002 fold, the caspase-3 protein level (Caspase-3 [11]) was 43.12 fold and the GI50 (Colon cancer cell lines; read-out: GI50 MG-MID) was 3.24 µM. The GI50 (Colon cancer cell lines; read-out: MG-MID GI50) was 3.24 µM, the “SI (Selectivity Index)” value (Colon cancer cell lines; full panel MG-MID / Colon Cancer subpanel MG-MID) was 1.38 and the GI50 (NSCLC cell lines; read-out: GI50 MG-MID) was 8.91 µM. For the same compound, the GI50 (NSCLC cell lines; read-out: MG-MID GI50) was 8.91 µM, the “SI (Selectivity Index)” value (NSCLC cell lines; full panel MG-MID / NSCLC subpanel MG-MID) was 0.50 and the GI50 (SF-295; SF-295) was 7.83 µM. It also gave an inhibition at 10 µM (SF-295; SF-295, read-out: percent growth inhibition) of 84.1%, a GI50 (SF-539; SF-539) of 2.31 µM and an inhibition at 10 µM (SF-539; SF-539, read-out: percent growth inhibition) of 174%. For the same compound, the GI50 (CNS cancer cell lines; read-out: GI50 MG-MID) was 5.22 µM, the GI50 (CNS cancer cell lines; read-out: MG-MID GI50) was 5.22 µM and the “SI (Selectivity Index)” value (CNS cancer cell lines; full panel MG-MID / CNS Cancer subpanel MG-MID) was 0.86. For the same compound, the GI50 (UACC-257; UACC-257) was 9.28 µM, the inhibition at 10 µM (UACC-257; UACC-257, read-out: percent growth inhibition) was 61.5% and the GI50 (SNB-19; SNB-19) was 5.19 µM. It also gave an inhibition at 10 µM (SNB-19; SNB-19, read-out: percent growth inhibition) of 56.9%, a GI50 (Renal cancer cell lines; read-out: GI50 MG-MID) of 3.99 µM and a GI50 (Renal cancer cell lines; read-out: MG-MID GI50) of 3.99 µM. For the same compound, the “SI (Selectivity Index)” value (Renal cancer cell lines; full panel MG-MID / Renal Cancer subpanel MG-MID) was 1.12.
